Holding throughout (design): scale not given: the % may be the effect or the level left
Assay [1] addresses Ribosomal protein S6 kinase alpha-3 (Homo sapiens) (UniProt P51812). Briefly: Inhibition of human MAPKAPK1beta assessed as enzyme activity at 1 uM using 33P ATP by radioactive filter binding assay.
The target in assay [2] is Insulin-like growth factor 1 receptor (Homo sapiens) (UniProt P08069). Briefly: Inhibition of human IGF1R (954 to 1367 residues) assessed as enzyme activity at 1 uM using 33P ATP by radioactive filter binding assay.
The target in assay [3] is Mitogen-activated protein kinase 11 (Homo sapiens) (UniProt Q15759). Briefly: Inhibition of SAPK2b (unknown origin) assessed as enzyme activity at 1 uM using 33P ATP by radioactive filter binding assay.
Sequence of Mitogen-activated protein kinase 11 (Homo sapiens) (Q15759 whole entry, the tested form may be a part): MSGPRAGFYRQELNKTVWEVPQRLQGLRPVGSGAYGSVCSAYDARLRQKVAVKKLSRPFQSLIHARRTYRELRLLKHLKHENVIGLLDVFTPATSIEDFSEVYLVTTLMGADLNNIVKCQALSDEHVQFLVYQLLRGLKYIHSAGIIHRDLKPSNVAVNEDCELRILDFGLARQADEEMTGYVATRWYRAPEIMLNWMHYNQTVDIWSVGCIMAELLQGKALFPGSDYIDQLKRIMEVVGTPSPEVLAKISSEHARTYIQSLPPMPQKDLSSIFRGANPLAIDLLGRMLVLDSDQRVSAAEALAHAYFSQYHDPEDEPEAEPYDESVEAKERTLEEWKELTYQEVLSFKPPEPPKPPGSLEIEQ
The target of assay [4] is Tyrosine-protein kinase Lck (Homo sapiens) (UniProt P06239). Briefly: Inhibition of human LCK (2 to 509 residues) assessed as enzyme activity at 1 uM using 33P ATP by radioactive filter binding assay.
Sequence of Tyrosine-protein kinase Lck (Homo sapiens) (P06239 2-509 limits assumed): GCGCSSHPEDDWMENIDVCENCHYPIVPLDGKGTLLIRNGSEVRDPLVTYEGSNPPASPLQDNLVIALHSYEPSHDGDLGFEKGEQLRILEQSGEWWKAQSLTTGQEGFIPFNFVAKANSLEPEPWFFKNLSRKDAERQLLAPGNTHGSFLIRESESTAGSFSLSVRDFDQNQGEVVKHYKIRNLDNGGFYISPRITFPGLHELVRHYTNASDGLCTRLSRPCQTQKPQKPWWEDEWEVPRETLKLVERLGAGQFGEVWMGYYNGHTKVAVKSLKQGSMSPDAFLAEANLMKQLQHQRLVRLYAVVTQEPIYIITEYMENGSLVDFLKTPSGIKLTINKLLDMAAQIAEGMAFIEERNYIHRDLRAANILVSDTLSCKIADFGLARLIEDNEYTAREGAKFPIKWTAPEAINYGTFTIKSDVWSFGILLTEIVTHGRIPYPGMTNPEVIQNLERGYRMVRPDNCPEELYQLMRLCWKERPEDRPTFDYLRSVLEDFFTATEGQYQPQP
The target in assay [5] is T1, Serine/threonine-protein kinase D1 (Homo sapiens) (UniProt Q15139).
T1 sequence (whole entry): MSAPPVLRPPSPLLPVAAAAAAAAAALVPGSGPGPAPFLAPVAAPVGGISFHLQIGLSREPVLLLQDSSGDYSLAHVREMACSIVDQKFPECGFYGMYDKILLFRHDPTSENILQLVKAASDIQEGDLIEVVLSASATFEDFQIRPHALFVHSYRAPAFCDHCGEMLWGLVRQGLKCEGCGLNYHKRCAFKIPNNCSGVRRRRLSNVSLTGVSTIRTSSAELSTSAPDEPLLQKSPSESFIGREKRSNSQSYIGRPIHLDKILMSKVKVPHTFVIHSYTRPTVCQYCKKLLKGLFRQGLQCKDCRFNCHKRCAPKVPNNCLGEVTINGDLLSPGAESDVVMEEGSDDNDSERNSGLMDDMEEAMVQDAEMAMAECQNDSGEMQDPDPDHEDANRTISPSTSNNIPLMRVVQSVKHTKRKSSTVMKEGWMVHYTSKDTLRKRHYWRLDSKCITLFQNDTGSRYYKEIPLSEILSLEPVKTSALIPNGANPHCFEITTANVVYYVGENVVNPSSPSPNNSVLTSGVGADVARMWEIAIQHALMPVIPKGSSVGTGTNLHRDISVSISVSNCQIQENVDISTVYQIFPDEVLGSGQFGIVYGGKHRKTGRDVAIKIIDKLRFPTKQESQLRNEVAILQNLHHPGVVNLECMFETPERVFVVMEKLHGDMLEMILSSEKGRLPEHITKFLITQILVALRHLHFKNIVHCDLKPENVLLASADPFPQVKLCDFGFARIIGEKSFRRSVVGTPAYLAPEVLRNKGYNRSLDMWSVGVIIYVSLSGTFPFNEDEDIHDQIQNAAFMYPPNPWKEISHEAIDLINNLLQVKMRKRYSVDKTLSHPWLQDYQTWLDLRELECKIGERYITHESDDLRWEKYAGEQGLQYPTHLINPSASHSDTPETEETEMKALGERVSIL
Briefly: Inhibition of human PKD1 (2 to 912 residues) assessed as enzyme activity at 1 uM using 33P ATP by radioactive filter binding assay.

The target in assay [6] is Calcium/calmodulin-dependent protein kinase kinase 2 (Homo sapiens) (UniProt Q96RR4). Briefly: Inhibition of human CAMKKb (1 to 541 residues) assessed as enzyme activity at 1 uM using 33P ATP by radioactive filter binding assay.
Sequence of Calcium/calmodulin-dependent protein kinase kinase 2 (Homo sapiens) (Q96RR4 2-588 limits assumed): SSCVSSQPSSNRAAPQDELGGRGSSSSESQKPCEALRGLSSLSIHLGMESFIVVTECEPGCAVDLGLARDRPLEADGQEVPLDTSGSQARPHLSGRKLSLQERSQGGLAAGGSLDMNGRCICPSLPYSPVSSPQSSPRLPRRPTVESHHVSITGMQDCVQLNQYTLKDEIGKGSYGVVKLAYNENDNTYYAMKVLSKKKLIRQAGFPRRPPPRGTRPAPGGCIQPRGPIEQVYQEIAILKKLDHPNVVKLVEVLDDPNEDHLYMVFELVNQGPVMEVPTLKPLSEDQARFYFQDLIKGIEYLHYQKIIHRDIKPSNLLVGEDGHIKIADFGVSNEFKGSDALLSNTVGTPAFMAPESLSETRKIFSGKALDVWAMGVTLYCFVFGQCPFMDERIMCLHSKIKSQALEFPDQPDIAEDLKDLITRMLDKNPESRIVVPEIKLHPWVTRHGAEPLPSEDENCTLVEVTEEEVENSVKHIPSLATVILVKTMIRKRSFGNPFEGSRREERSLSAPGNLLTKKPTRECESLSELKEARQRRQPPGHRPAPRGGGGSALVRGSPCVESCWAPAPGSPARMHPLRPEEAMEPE
Assay [7] deals with Ephrin type-A receptor 2 (Homo sapiens) (UniProt P29317). Briefly: Inhibition of human EPHA2 (591 to 976 residues) assessed as enzyme activity at 1 uM using 33P ATP by radioactive filter binding assay.
Sequence of Ephrin type-A receptor 2 (Homo sapiens) (P29317 whole entry, the tested form may be a part): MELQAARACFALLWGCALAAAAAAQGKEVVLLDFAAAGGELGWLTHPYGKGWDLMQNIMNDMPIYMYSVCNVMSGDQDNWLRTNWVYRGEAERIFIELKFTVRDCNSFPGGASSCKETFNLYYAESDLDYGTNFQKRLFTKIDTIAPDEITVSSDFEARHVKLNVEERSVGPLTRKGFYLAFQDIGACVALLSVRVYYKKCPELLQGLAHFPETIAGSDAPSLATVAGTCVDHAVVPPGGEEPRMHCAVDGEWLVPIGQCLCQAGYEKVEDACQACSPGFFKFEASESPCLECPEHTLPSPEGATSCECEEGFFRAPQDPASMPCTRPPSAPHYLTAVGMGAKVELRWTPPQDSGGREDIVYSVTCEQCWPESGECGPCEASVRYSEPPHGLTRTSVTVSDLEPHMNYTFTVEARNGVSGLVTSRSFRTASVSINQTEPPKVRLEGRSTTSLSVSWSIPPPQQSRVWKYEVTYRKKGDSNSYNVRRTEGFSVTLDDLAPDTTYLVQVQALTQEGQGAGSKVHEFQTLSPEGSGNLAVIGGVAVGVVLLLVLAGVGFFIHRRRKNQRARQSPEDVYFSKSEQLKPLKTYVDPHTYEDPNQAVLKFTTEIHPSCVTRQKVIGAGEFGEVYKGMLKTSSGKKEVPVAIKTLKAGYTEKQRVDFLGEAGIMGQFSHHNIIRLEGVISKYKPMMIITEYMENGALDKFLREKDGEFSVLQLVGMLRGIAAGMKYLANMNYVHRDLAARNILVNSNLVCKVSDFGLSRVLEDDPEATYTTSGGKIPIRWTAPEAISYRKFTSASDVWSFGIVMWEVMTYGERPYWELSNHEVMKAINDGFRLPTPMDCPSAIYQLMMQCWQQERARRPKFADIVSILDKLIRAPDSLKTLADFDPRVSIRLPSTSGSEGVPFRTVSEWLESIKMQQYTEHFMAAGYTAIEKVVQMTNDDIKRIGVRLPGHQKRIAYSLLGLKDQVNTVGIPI
Assay [8] deals with AMP-activated protein kinase, AMPK (Homo sapiens) (UniProt P54646+O43741+P54619+Q9UGJ0+Q9Y478+Q13131+Q9UGI9). Briefly: Inhibition of human AMPK assessed as enzyme activity at 1 uM using 33P ATP by radioactive filter binding assay. The format is protein-complex assay.
Assay [9] concerns the target T2, Serine/threonine-protein kinase Nek2 (Homo sapiens) (UniProt P51955).
T2 sequence (whole entry): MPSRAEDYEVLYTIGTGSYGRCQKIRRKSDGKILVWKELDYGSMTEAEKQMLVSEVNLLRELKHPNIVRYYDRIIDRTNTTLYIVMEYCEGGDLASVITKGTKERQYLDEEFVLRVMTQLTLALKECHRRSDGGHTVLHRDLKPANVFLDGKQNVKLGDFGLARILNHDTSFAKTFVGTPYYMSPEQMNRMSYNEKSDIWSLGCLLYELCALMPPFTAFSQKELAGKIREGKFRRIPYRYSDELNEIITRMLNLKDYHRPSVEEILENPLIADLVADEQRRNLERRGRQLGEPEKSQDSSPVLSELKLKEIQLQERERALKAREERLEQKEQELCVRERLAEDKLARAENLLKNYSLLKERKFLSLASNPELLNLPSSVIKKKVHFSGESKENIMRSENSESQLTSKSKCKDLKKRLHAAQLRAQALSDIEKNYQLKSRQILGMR
Briefly: Inhibition of human NEK2A (1 to 445 residues) assessed as enzyme activity at 1 uM using 33P ATP by radioactive filter binding assay.

Assay [10] has as its target Serine/threonine-protein kinase PLK1 (Homo sapiens) (UniProt P53350). Briefly: Inhibition of human PLK1 (1 to 603 residues) assessed as enzyme activity at 1 uM using 33P ATP by radioactive filter binding assay.
Assay [11] concerns the target Mitogen-activated protein kinase 8 (Homo sapiens) (UniProt P45983). Briefly: Inhibition of human JNK1alpha1 assessed as enzyme activity at 1 uM using 33P ATP by radioactive filter binding assay.
For assay [12], the target named is Serine/threonine-protein kinase Nek6 (Homo sapiens) (UniProt Q9HC98). Briefly: Inhibition of human NEK6 (8 to 313 residues) assessed as enzyme activity at 1 uM using 33P ATP by radioactive filter binding assay.
Sequence of Serine/threonine-protein kinase Nek6 (Homo sapiens) (Q9HC98 whole entry, the tested form may be a part): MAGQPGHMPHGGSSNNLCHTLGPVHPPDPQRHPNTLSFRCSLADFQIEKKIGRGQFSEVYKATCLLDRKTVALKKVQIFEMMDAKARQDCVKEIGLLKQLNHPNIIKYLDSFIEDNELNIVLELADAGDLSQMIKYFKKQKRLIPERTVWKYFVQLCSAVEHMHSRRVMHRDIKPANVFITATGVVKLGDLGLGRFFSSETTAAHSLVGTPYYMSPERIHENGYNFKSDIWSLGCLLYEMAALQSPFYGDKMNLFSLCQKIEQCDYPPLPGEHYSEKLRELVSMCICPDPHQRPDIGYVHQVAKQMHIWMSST

Sequence of Ribosomal protein S6 kinase alpha-3 (Homo sapiens) (P51812 whole entry, the tested form may be a part): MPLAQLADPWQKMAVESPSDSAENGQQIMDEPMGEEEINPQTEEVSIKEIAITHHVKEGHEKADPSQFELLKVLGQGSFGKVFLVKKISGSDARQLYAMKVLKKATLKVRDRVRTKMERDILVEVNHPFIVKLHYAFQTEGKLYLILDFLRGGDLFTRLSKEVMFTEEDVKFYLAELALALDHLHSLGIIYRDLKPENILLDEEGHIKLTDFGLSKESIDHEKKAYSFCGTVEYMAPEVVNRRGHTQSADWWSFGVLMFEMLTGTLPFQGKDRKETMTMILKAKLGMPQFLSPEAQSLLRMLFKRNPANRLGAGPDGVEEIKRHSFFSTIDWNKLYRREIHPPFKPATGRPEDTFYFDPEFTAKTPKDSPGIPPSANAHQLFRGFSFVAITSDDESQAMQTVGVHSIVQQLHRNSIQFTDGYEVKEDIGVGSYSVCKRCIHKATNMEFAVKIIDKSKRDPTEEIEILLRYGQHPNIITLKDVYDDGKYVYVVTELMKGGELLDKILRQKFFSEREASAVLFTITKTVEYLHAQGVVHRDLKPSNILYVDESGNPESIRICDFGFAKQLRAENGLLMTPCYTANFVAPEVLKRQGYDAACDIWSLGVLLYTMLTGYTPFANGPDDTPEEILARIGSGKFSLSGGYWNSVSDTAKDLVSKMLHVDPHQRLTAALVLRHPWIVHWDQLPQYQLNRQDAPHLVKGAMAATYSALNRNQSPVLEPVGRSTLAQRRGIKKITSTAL
Sequence of Serine/threonine-protein kinase PLK1 (Homo sapiens) (P53350 whole entry, the tested form may be a part): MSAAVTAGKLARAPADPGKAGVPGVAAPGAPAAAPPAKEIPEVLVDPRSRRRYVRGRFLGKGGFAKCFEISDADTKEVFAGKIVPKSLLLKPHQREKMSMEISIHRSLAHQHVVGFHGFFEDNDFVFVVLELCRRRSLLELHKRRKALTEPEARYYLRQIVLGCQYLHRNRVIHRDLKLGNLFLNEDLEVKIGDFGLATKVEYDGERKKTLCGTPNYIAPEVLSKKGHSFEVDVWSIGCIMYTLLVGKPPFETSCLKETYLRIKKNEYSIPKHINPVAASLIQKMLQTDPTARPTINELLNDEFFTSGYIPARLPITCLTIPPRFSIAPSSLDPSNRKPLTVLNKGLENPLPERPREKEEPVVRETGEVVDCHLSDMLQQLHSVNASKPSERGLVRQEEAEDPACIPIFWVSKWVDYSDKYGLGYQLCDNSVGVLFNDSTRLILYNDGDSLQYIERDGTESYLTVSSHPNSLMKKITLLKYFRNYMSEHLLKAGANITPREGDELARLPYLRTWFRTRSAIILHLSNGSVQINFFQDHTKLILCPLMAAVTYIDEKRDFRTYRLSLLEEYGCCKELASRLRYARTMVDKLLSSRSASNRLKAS
Sequence of Mitogen-activated protein kinase 8 (Homo sapiens) (P45983 whole entry, the tested form may be a part): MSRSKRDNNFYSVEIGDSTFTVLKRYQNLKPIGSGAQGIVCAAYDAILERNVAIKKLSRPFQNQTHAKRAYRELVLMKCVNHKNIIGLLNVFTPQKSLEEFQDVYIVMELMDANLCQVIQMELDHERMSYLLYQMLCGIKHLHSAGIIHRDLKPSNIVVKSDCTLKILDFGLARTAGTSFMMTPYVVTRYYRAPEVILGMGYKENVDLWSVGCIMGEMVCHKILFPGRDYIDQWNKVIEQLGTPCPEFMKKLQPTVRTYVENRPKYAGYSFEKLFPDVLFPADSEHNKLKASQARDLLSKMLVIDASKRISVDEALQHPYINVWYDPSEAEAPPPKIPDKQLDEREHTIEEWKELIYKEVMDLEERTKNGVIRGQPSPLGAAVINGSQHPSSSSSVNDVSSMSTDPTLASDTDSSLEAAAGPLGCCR

For the compound `CCCCc1cc(-c2c[nH]c3ncc(-c4cnn(C5CCNCC5)c4)cc23)nc(N)n1`, the Activity in assay [1] is -92%; in assay [2], -27%; in assay [3], -21%; in assay [4], -99%; in assay [5] it was -98%; in assay [6] it was -86%. Also, the Activity was -53% in assay [7]; -69% in assay [8]; -89% in assay [9]; -41% in assay [10]; -41% in assay [11]; -16% in assay [12].
As to `CCc1cc(-c2c[nH]c3ncc(-c4cnn(C5CCNCC5)c4)cc23)nc(N)n1`, the Activity in [1] is -71%; in [2], -34%; in assay [3], -18%; in assay [4] it was -95%; in assay [5] it was -96%; in assay [6], -58%. Further, the Activity was -16% in [7]; -54% in assay [8]; -58% in [9]; -41% in assay [10]; -31% in assay [11]; -4% in assay [12].
For the compound `Nc1nccc(-c2c[nH]c3ncccc23)n1` [MERIOLIN 1], the Activity in [1] was -46%; in [2], -2%; in assay [3], -4%; in assay [4], -9%; in assay [5], -41%; in assay [6], -31%. Moreover, the Activity was 25% in assay [7]; -11% in assay [8]; -4% in assay [9]; -26% in assay [10]; -5% in assay [11]; -7% in assay [12].
Take `CCCCc1cc(-c2c[nH]c3ncccc23)nc(N)n1`: the Activity in assay [1] was -17%; in assay [3], -5%; in assay [4] it was -5%; in assay [5] it was -53%; in [6] it was -2%; in [7], 17%. The Activity in [8] was -6%; in assay [9], 2%; in [10] it was -6%; in [11], -6%; in assay [12], -11%.
